In ChEMBL document CHEMBL3351766, “Asymmetric binding to NS5A by daclatasvir (BMS-790052) and analogs suggests two novel modes of HCV inhibition” (J Med Chem, 2014):

Assays:
Hepatitis C virus [1] = test: Antiviral activity against wild type HCV genotype 1b assessed as replication level; format: functional, Hepacivirus hominis; settings: for EC50: Hepatitis C virus, genotype 1b
Hepatitis C virus [2] = test: Antiviral activity against HCV genotype 1b expressing NS5A Y93H mutant assessed as replication level; format: functional, Hepacivirus hominis; settings: for EC50: Hepatitis C virus, genotype 1b
Hepatitis C virus [3] = test: Antiviral activity against HCV genotype 1b expressing NS5A L31F mutant assessed as replication level
Hepatitis C virus [4] = test: Antiviral activity against HCV genotype 1b expressing NS5A L31V/Y93H mutant assessed as replication level; format: functional, Hepacivirus hominis
Hepatitis C virus [5] = test: Antiviral activity against HCV genotype 1b expressing NS5A L31M/Y93H mutant assessed as replication level; format: functional, Hepacivirus hominis
Hepatitis C virus [6] = test: Antiviral activity against HCV genotype 1b expressing NS5A L31M mutant assessed as replication level; format: functional, Hepacivirus hominis
Hepatitis C virus [7] = test: Antiviral activity against HCV genotype 1b expressing NS5A L31V mutant assessed as replication level; format: functional, Hepacivirus hominis

`COC(=O)N[C@H](C(=O)N1CCC[C@H]1c1ncc(-c2ccc(Oc3ccc(-c4cnc([C@@H]5CCCN5C(=O)[C@@H](NC(=O)OC)C(C)C)[nH]4)cc3)cc2)[nH]1)C(C)C` was tested. Which EC50 (Hepatitis C virus [1]) did it give?
The EC50 was 30 nM.

With `COC(=O)N[C@H](C(=O)N1C[C@@H](N=[N+]=[N-])C[C@H]1c1ncc(-c2ccc(-c3ccc(-c4cnc([C@@H]5C[C@H](N=[N+]=[N-])CN5C(=O)[C@@H](NC(=O)OC)C(C)C)[nH]4)cc3)cc2)[nH]1)C(C)C` as the molecule, how does the EC50 (Hepatitis C virus [1]) read?
The EC50 was 0.023 nM.

For `COC(=O)N[C@H](C(=O)N1C[C@H](N=[N+]=[N-])C[C@H]1c1ncc(-c2ccc(-c3ccc(-c4cnc([C@@H]5C[C@@H](N=[N+]=[N-])CN5C(=O)[C@@H](NC(=O)OC)C(C)C)[nH]4)cc3)cc2)[nH]1)C(C)C`, which EC50 (Hepatitis C virus [1]) is on record?
Its EC50 is 0.0184 nM.

For `COC(=O)N[C@H](C(=O)N1C[C@H](n2cc(C(=O)OC)nn2)C[C@H]1c1ncc(-c2ccc(-c3ccc(-c4cnc([C@@H]5C[C@@H](n6cc(C(=O)OC)nn6)CN5C(=O)[C@@H](NC(=O)OC)C(C)C)[nH]4)cc3)cc2)[nH]1)C(C)C`, which EC50 (Hepatitis C virus [1]) is on record?
The EC50 was 0.0118 nM.

For `COC(=O)N[C@H](C(=O)N1C[C@@H](n2cc(C(=O)OC)nn2)C[C@H]1c1ncc(-c2ccc(-c3ccc(-c4cnc([C@@H]5C[C@H](n6cc(C(=O)OC)nn6)CN5C(=O)[C@@H](NC(=O)OC)C(C)C)[nH]4)cc3)cc2)[nH]1)C(C)C`, which EC50 (Hepatitis C virus [1]) is on record?
Its EC50 is greater than 10 nM.

`COC(=O)N[C@H](C(=O)N1CCC[C@H]1c1ncc(-c2ccccc2)[nH]1)C(C)C` was tested. Which EC50 (Hepatitis C virus [1]) did it give?
Its EC50 is greater than 1000 nM.

`COC(=O)N[C@H](C(=O)N1CCC[C@H]1c1ncc(-c2ccc(N=[N+]=[N-])cc2)[nH]1)C(C)C` was tested. Which EC50 (Hepatitis C virus [2]) did it give?
The EC50 was 8 nM.

`COC(=O)N[C@H](C(=O)N1CCC[C@H]1c1nc(Br)c(-c2ccc(N=[N+]=[N-])cc2)[nH]1)C(C)C` was tested. Which EC50 (Hepatitis C virus [3]) did it give?
Its EC50 is 0.7 nM.

How did the EC50 (Hepatitis C virus [1]) turn out when `COC(=O)N[C@H](C(=O)N1CCC[C@H]1c1nc(Br)c(-c2ccc(Oc3ccc(-c4[nH]c([C@@H]5CCCN5C(=O)[C@@H](NC(=O)OC)C(C)C)nc4Br)cc3)cc2)[nH]1)C(C)C` was run?
The EC50 was 0.05 nM.

How did the Activity (Hepatitis C virus [4]) turn out when `COC(=O)N[C@H](C(=O)N1CCC[C@H]1c1ncc(-c2ccc(-c3ccc(-c4cnc([C@@H]5CCCN5C(=O)[C@@H](NC(=O)OC)C(C)C)[nH]4)cc3)cc2)[nH]1)C(C)C` [DACLATASVIR] was run?
The Activity was 50%.

What about the EC50 (Hepatitis C virus [4]; Hepatitis C virus, genotype 1b) of the same molecule?
Its EC50 is 38 nM.

And the Activity (Hepatitis C virus [5])?
The Activity was 70%.

What about the EC50 (Hepatitis C virus [5]; Hepatitis C virus, genotype 1b) of the same molecule?
Its EC50 is 18.3 nM.

And the Activity (Hepatitis C virus [1])?
The Activity was 100%.

What about the EC50 (Hepatitis C virus [1]) of the same molecule?
Its EC50 is 0.0026 nM.

And the Activity (Hepatitis C virus [6])?
Its Activity is 99%.

And the EC50 (Hepatitis C virus [6]; Hepatitis C virus, genotype 1b)?
Its EC50 is 0.0084 nM.

And the Activity (Hepatitis C virus [2])?
Its Activity is 27%.

What about the EC50 (Hepatitis C virus [2]) of the same molecule?
Its EC50 is 0.0623 nM.

What about the Activity (Hepatitis C virus [7]) of the same molecule?
The Activity was 158%.

And the EC50 (Hepatitis C virus [7]; Hepatitis C virus, genotype 1b)?
The EC50 was 0.0717 nM.
